Measured values: a compilation of properties of binary mixtures (doi:10.1021/acs.jced.9b00875)

Test: xn = mol fraction of the nth substance listed
Conditions: 101 kPa

CNC(C)=O + CCCC[n+]1ccn(C)c1.F[B-](F)(F)F
Conditions | speed of sound [m/s] | viscosity [mPa·s]
293.15 K, x2 = 0 | 1406.2 | 5.56
293.15 K, x2 = 0.2042 | 1479.3 | 8.7
293.15 K, x2 = 0.27 | 1497.8 | 10.6
293.15 K, x2 = 0.3564 | 1517.3 | 14.28
293.15 K, x2 = 0.4992 | 1540.3 | 24.5
293.15 K, x2 = 0.5552 | 1546.9 | 30.2
293.15 K, x2 = 0.6389 | 1555.3 | 41
293.15 K, x2 = 0.714 | 1561.4 | 53.3
293.15 K, x2 = 0.8495 | 1569.8 | 82.6
293.15 K, x2 = 0.9302 | 1573.9 | 104.9
298.15 K, x2 = 0 | 1385.3 | 4.77
298.15 K, x2 = 0.1409 | 1440 | 6.18
298.15 K, x2 = 0.27 | 1480.6 | 8.7
298.15 K, x2 = 0.3564 | 1501.1 | 11.64
298.15 K, x2 = 0.4343 | 1516 | 15.46
298.15 K, x2 = 0.5552 | 1532.7 | 24.2
298.15 K, x2 = 0.6389 | 1542 | 32.6
298.15 K, x2 = 0.714 | 1548.6 | 42.1
298.15 K, x2 = 0.8495 | 1558 | 64.5
298.15 K, x2 = 0.9302 | 1562.5 | 81.6
303.15 K, x2 = 0 | 1366.3 | 4.09
303.15 K, x2 = 0.0711 | 1395.9 | 4.92
303.15 K, x2 = 0.2042 | 1444.8 | 6.38
303.15 K, x2 = 0.27 | 1464.5 | 7.32
303.15 K, x2 = 0.3564 | 1486 | 9.13
303.15 K, x2 = 0.4343 | 1501.4 | 11.57
303.15 K, x2 = 0.4992 | 1511.8 | 14.39
303.15 K, x2 = 0.5552 | 1519.2 | 17.5
303.15 K, x2 = 0.6389 | 1529.2 | 23.6
303.15 K, x2 = 0.714 | 1536.2 | 30.7
303.15 K, x2 = 0.7774 | 1541.2 | 38.1
303.15 K, x2 = 0.8495 | 1546.2 | 48.2
303.15 K, x2 = 0.9302 | 1551 | 62
308.15 K, x2 = 0.0711 | 1380.7 | 4.25
308.15 K, x2 = 0.1409 | 1408.3 | 4.86
308.15 K, x2 = 0.2042 | 1430.4 | 5.48
308.15 K, x2 = 0.27 | 1450.3 | 6.31
308.15 K, x2 = 0.3564 | 1472.3 | 7.85
308.15 K, x2 = 0.4343 | 1488.2 | 9.86
308.15 K, x2 = 0.4992 | 1498.9 | 12.11
308.15 K, x2 = 0.5552 | 1506.5 | 14.56
308.15 K, x2 = 0.6389 | 1516.8 | 19.2
308.15 K, x2 = 0.7774 | 1529.2 | 30.2
308.15 K, x2 = 0.8495 | 1534.1 | 37.8
308.15 K, x2 = 0.9302 | 1539.1 | 48
313.15 K, x2 = 0 | 1336.4 | 3.08
313.15 K, x2 = 0.0711 | 1367.7 | 3.76
313.15 K, x2 = 0.1409 | 1395.4 | 4.34
313.15 K, x2 = 0.2042 | 1417.6 | 4.86
313.15 K, x2 = 0.27 | 1437.6 | 5.5
313.15 K, x2 = 0.3564 | 1459.7 | 6.64
313.15 K, x2 = 0.4343 | 1475.8 | 8.12
313.15 K, x2 = 0.5552 | 1494.8 | 11.64
313.15 K, x2 = 0.6389 | 1505 | 15.21
313.15 K, x2 = 0.714 | 1512 | 19.4
313.15 K, x2 = 0.7774 | 1517.5 | 23.7
313.15 K, x2 = 0.8495 | 1522.3 | 29.7
313.15 K, x2 = 0.9302 | 1527 | 37.8
318.15 K, x2 = 0 | 1325.2 | 2.76
318.15 K, x2 = 0.2042 | 1406.7 | 4.13
318.15 K, x2 = 0.27 | 1426.7 | 4.62
318.15 K, x2 = 0.3564 | 1448.6 | 5.5
318.15 K, x2 = 0.4343 | 1464.7 | 6.68
318.15 K, x2 = 0.4992 | 1476 | 8.04
318.15 K, x2 = 0.5552 | 1484.1 | 9.55
318.15 K, x2 = 0.6389 | 1493.8 | 12.51
318.15 K, x2 = 0.714 | 1501 | 16
318.15 K, x2 = 0.7774 | 1506.1 | 19.7
318.15 K, x2 = 0.8495 | 1510.8 | 24.7
318.15 K, x2 = 0.9302 | 1514.9 | 31.6

CCCC[n+]1ccn(C)c1.F[B-](F)(F)F + CNC(C)=O
x1 = 1
Conditions | speed of sound [m/s] | viscosity [mPa·s]
298.15 K | 1565.8 | 98.9
303.15 K | 1554.5 | 76.3
308.15 K | 1542.7 | 58.4
313.15 K | 1530.5 | 46.2
318.15 K | 1518 | 38.7
